{"source": "ChEMBL document CHEMBL5537169", "about": "“Structure-Activity Relationships and Discovery of (S)-6-Isopropyl-2-methoxy-3-(3-methoxypropoxy)-10-oxo-5,10-dihydro-6H-pyrido[1,2-h][1,7]naphthyridine-9-carboxylic Acid (AB-452), a Novel Orally Available HBV RNA Destabilizer” (J Med Chem, 2024)", "key": {"[1]": {"test": "Cardiotoxicity in Langendorff-perfused New Zealand White rabbit heart assessed as increase in QT interval upto 10 uM incubated for 45 mins by ECG analysis", "assay_type": "toxicity, tissue-based, Oryctolagus cuniculus", "conditions": "0.75 h"}, "Hepatitis B virus [2]": {"system": "Hepatitis B virus", "test": "Antiviral activity against AAV-Hepatitis B virus infected in C57BL/6 mouse assessed as serum HBsAg level at 10 mg/kg,po administrated once daily for 7 days by enzyme-linked immunoassay", "assay_type": "functional", "conditions": "time 7 day"}, "[3]": {"test": "Toxicity in rat assessed as NOAEL administrated for 28 days", "conditions": "in vivo, time 28 day"}, "Hepatitis B virus [4]": {"system": "Hepatitis B virus", "test": "Antiviral activity against AAV-Hepatitis B virus infected in human Primary hepatocyte assessed as reduction in HBV DNA level measured after 16 days by ELISA", "assay_type": "functional, organism-based", "conditions": "384 h"}, "Hepatitis B virus [5]": {"system": "Hepatitis B virus", "test": "Antiviral activity against AAV-Hepatitis B virus infected in C57BL/6 mouse assessed as serum HBsAg level at 3 mg/kg,po administrated once daily for 7 days by enzyme-linked immunoassay", "assay_type": "functional", "conditions": "time 7 day"}, "[6]": {"test": "Cardiotoxicity in Langendorff-perfused New Zealand White rabbit heart assessed as increase in QRS interval upto 10 uM incubated for 45 mins by ECG analysis", "assay_type": "toxicity, tissue-based, Oryctolagus cuniculus", "conditions": "0.75 h"}, "Hepatitis B virus [7]": {"system": "Hepatitis B virus", "test": "Antiviral activity against AAV-Hepatitis B virus infected in C57BL/6 mouse assessed as liver total HBV RNA level at 3 to 30 mg/kg,po administrated once daily for 7 days by branched DNA assay", "assay_type": "functional, organism-based", "conditions": "dose 3-30 mg/kg, time 7.0 day"}, "Hepatitis B virus [8]": {"system": "Hepatitis B virus", "test": "Antiviral activity against AAV-Hepatitis B virus infected in human Primary hepatocyte assessed as reduction in HBsAg level measured after 16 days by ELISA", "assay_type": "functional, organism-based", "conditions": "384 h"}, "Hepatitis B virus [9]": {"system": "Hepatitis B virus", "test": "Antiviral activity against AAV-Hepatitis B virus infected in human Primary hepatocyte assessed as reduction in HBeAg level measured after 16 days by ELISA", "assay_type": "functional, organism-based", "conditions": "384 h"}, "[10]": {"test": "Cardiotoxicity in Langendorff-perfused New Zealand White rabbit heart assessed as increase in PR interval upto 10 uM incubated for 45 mins by ECG analysis", "assay_type": "toxicity, tissue-based, Oryctolagus cuniculus", "conditions": "0.75 h"}, "[11]": {"test": "Drug accumulation in Sprague-Dawley rat liver at 10 mg/kg,po measured at 0.083 to 24 hrs post administration by LC-MS/MS analysis", "assay_type": "ADME, organism-based", "conditions": "in vivo, time 0.083-24 hrs"}, "[12]": {"test": "Tmax in CD-1 mouse at 10 mg/kg,po measured at 0.083 to 24 hrs post administration by LC-MS/MS analysis", "assay_type": "ADME, organism-based", "conditions": "in vivo, time 0.083-24 hrs"}, "[13]": {"test": "Apparent volume of distribution at steady state in Sprague-Dawley rat at 10 mg/kg,po measured at 0.083 to 24 hrs post administration by LC-MS/MS analysis", "assay_type": "ADME, organism-based", "conditions": "in vivo, time 0.083-24 hrs"}, "[14]": {"test": "Apparent volume of distribution at steady state in CD-1 mouse at 10 mg/kg,po measured at 0.083 to 24 hrs post administration by LC-MS/MS analysis", "assay_type": "ADME, organism-based", "conditions": "in vivo, time 0.083-24 hrs"}}, "note": "Calls of active or inactive are those of the source. The calls are words filed in the database; no cut-off is given here.", "data": [{"smiles": "COCCCOc1cc2c(nc1OC)-c1cc(=O)c(C(=O)O)cn1[C@H](C(C)C)C2", "values": [{"measurement": "Activity", "setting": "[1]", "result": "Non-Toxic"}, {"measurement": "Activity", "setting": "Hepatitis B virus [2]", "result": 1.64, "unit": "log10CFU"}, {"measurement": "NOAEL at 672 h", "setting": "[3]", "result": 150, "unit": "mg/kg"}, {"measurement": "EC50", "setting": "Hepatitis B virus [4]", "result": 3, "unit": "nM"}, {"measurement": "Activity", "setting": "Hepatitis B virus [5]", "result": 0.74, "unit": "log10CFU"}, {"measurement": "Activity", "setting": "[6]", "result": "Non-Toxic"}, {"measurement": "Activity", "setting": "Hepatitis B virus [7]", "result": "Active"}, {"measurement": "EC50", "setting": "Hepatitis B virus [8]", "result": 3, "unit": "nM"}, {"measurement": "EC50", "setting": "Hepatitis B virus [9]", "result": 3, "unit": "nM"}, {"measurement": "Activity", "setting": "[10]", "result": "Non-Toxic"}]}, {"smiles": "COCCCOc1cc2c(cc1Cl)-c1cc(=O)c(C(=O)O)cn1[C@H](C(C)C)CO2", "values": [{"measurement": "Ct", "setting": "[11]", "result": 29, "unit": "ng/g"}, {"measurement": "Tmax", "setting": "[12]", "result": 4.1, "unit": "h"}, {"measurement": "Vdss(app)", "setting": "[13]", "result": 0.4, "unit": "L/kg"}, {"measurement": "Vdss(app)", "setting": "[14]", "result": 1.1, "unit": "L/kg"}]}]}
